Test results: PubChem BioAssay AID1645863 (Buhrlage Lab, Dana-Farber Cancer Institute and Novartis …, 2021)
Activity calls are given as the source filed them. The rule behind the calls is not given here.

These compounds were tested against Ubiquitin carboxyl-terminal hydrolase 10 (Homo sapiens) (UniProt Q14694) (assay: ubiquitin-specific protease 10 DUB inhibitors, concentration-effect, biochemical, verification of primary screen actives (AID 1645863;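 note: potency values describe inhibition of USP10 cleavage of a fluorogenic ubiquitin substrate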)). Settings: USP10 deubiquitinase enzymatic assay.
Sequence of Ubiquitin carboxyl-terminal hydrolase 10 (Homo sapiens) (Q14694 whole entry, looked up): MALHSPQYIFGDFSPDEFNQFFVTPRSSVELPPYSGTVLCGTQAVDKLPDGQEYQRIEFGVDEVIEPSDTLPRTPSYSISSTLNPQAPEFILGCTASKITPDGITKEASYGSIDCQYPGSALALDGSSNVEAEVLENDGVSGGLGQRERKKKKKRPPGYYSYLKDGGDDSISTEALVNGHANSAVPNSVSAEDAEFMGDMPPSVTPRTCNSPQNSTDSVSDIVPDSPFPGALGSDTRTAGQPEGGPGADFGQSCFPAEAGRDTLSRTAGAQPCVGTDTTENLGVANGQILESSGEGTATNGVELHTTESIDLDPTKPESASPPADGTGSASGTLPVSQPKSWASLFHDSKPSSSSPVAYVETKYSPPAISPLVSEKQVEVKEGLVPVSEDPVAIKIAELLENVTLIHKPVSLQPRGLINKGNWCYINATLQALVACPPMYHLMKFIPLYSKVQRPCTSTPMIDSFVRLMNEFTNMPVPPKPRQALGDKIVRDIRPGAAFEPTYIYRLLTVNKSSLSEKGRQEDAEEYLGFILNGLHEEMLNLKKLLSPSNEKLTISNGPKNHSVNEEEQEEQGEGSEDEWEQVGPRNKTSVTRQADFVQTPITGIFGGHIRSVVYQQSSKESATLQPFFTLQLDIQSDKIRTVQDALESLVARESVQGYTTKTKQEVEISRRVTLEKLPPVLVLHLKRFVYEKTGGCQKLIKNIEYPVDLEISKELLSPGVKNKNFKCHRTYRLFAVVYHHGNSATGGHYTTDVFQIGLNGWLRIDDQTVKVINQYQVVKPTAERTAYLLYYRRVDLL
`O=C(Nc1nc(-c2ccccc2)ns1)c1ccc2ncsc2c1` showed an IC50 of 31.6 µM. `CCCCCCCCCC(CCCCCCCCCC(=O)O)O[C@H]1O[C@@H](COC(C)=O)[C@H](O)[C@@H](OC(=O)CC(=O)O)[C@H]1O` (some centres undefined) gave an IC50 of 30.6 µM. In the case of `CC[C@H](C)[C@H](NC(=O)[C@H]([C@@H](C)CC)N(C)C(C)=O)C(=O)N[C@H](C(=O)N[C@@H](CC(C)C)C(=O)C1(C)CO1)[C@@H](C)O` (some centres undefined), the IC50 is reported as > 40 µM (inactive). `Cc1cccc(NC(=O)Nc2nnc(CC(=O)NCc3ccccc3)s2)c1` gave an IC50 of 17.4 µM. In the case of `COC(=O)c1ccccc1NC(=O)Cn1c(=O)n(CCCC(=O)NCc2ccco2)c(=O)c2ccccc21`, the IC50 is reported as 13 µM. In the case of `O=S1(=O)CCN(CC2CCCO2)c2c(Oc3ccccc3)nc(F)c(Cl)c21` (centres undefined), the IC50 is reported as > 40 µM (inactive). `COc1ccc(CNC(=O)Cn2c(=O)[nH]c3c(-c4ccccc4F)c[nH]c3c2=O)cc1` was tested, and the IC50 was > 40 µM (inactive). In the case of `Fc1ccccc1-c1nc2c3cnn(-c4ccccc4)c3ncn2n1`, the IC50 is reported as > 40 µM (inactive). For `COc1ccc(CC(=O)Nc2ccccc2-c2nc3ccccc3[nH]2)cc1OC`, the IC50 was 36.7 µM. With `CCCCCCCc1cc(OC(=O)c2c(CCCCCCC)cc(O)cc2O[C@@H]2O[C@H](CO)[C@@H](O)[C@H](O)[C@H]2O)cc(O)c1C(=O)O` the IC50 was 3.94 µM. With `O=c1c2ccccc2nc(CSc2cccc(Cl)c2Cl)n1-c1ccccc1` the IC50 was > 40 µM (inactive). `Cc1ccc(Cl)cc1NC(=O)c1cc(-c2ccccn2)n[nH]1` was tested, and the IC50 was > 40 µM (inactive). With `CCOc1ccc2c(c1)c(=O)c(C(=O)c1ccccc1)cn2CC(=O)Nc1ccccc1` the IC50 was > 40 µM (inactive). For `CCN(c1ccc(NC(=O)CSc2nnc(-c3ccccc3)n2-c2ccc(OC)c(OC)c2)cc1)C(C)C`, the IC50 was > 40 µM (inactive). `Cn1c(O)c(C2=Nc3ccccc3SC(c3cccc(O)c3)C2)c(=O)[nH]c1=O` (centres undefined) was tested, and the IC50 was > 40 µM (inactive). In the case of `O=S(=O)(c1ccccc1Cl)N1CCN(c2ccc3nnc(-c4ccco4)n3n2)CC1`, the IC50 is reported as > 40 µM (inactive). `O=C(NCc1ccc2c(c1)OCO2)c1[nH]nc2c1COc1ccccc1-2` was tested, and the IC50 was 15.2 µM. In the case of `COc1ccc2[nH]c(=O)c(CN(C)C(=O)c3ccc([N+](=O)[O-])cc3)cc2c1`, the IC50 is reported as > 40 µM (inactive). With `COc1ccc(C(=O)COC(=O)c2ccccc2NS(=O)(=O)c2ccc(O)c([N+](=O)[O-])c2)cc1` the IC50 was 9.78 µM. For `Cc1c(-c2nn3c(-c4ccco4)nnc3s2)cccc1[N+](=O)[O-]`, the IC50 was > 40 µM (inactive). Work on `CCOC(=O)c1cc2c(ccn2-c2ccc(F)cc2)n1CC(=O)Nc1ccc2c(c1)OCCO2` yielded an IC50 of 30.3 µM. Work on `COc1ccc(-c2cc(-c3ccc(F)cc3)[nH]c(=O)c2C#N)cc1` yielded an IC50 of 18.3 µM. In the case of `COc1ccc(Oc2cc3n(c(=O)n2)CCc2cc(OC)c(OC)cc2-3)cc1`, the IC50 is reported as > 40 µM (inactive). Compound `CC(=O)[C@H]1c2c(c(O)c3c(O)cccc3c2-c2c3c(c(O)c4c(O)cccc24)C(=O)C[C@](C)(O)[C@H]3C(C)=O)C(=O)C[C@]1(C)O` has an IC50 of 39.3 µM. With `CCN(Cc1ccccc1)C(=O)C1CCN(Cc2ccc(OC)c(OC)c2OC)CC1` the IC50 was > 40 µM (inactive). `COc1ccc(-c2cc(-c3ccccc3)nc(SCC(N)=O)c2C#N)cc1OC` was tested, and the IC50 was 21.6 µM. In the case of `CCOc1ccc(NC(=O)Cn2c(=O)n(CCC(=O)NCc3ccco3)c(=O)c3ccccc32)cc1`, the IC50 is reported as 24.4 µM. For `COc1c(C)c(C(O)C(C)O)c2[nH]c3ccc(CC=C(C)C)cc3c2c1O` (centres undefined), the IC50 was > 40 µM (inactive). For `O=C(NCc1ccc(F)cc1)c1cccc(Nc2nc3ccccc3n3cnnc23)c1`, the IC50 was 38 µM. Compound `Cn1c(=O)c2ncnnc2n(C)c1=O` has an IC50 of 3.09 µM. With `COc1ccc(Cn2c(=O)[nH]c3cc(C(=O)NCCCN4CCN(c5cccc(Cl)c5)CC4)ccc3c2=O)cc1` the IC50 was > 40 µM (inactive). `CCOc1cccc(-c2noc(-c3nn(-c4ccccc4)ccc3=O)n2)c1` was tested, and the IC50 was > 40 µM (inactive). With `O=C(NCCc1cccnc1)c1ccn(-c2ccc3ccccn23)n1` the IC50 was > 40 µM (inactive). With `CSc1cccc(NC(=O)C2C3C=CC4(O3)C2C(=O)N(CCc2ccccc2)C4C(=O)NC2CCCCC2)c1` (centres undefined) the IC50 was > 40 µM (inactive). `FC(F)(F)c1cccc(Nc2nc(-c3ccccn3)nc3ccccc23)c1` was tested, and the IC50 was > 40 µM (inactive). With `Cc1ccc(NC(=O)Cc2sc(Nc3ccc(C)cc3)nc2O)cc1` the IC50 was > 40 µM (inactive). `O=c1[nH]c(C2CCN(S(=O)(=O)c3ccc(S(=O)(=O)NC4CCCCC4)cc3)CC2)nc2c1nnn2Cc1c(F)cccc1Cl` gave an IC50 of 16.4 µM. In the case of `O=C(CCCC(=O)N(c1ccc2c(c1)OCCO2)C(C(=O)NC1CCCCC1)c1ccc(F)cc1)Nc1ccccn1` (centres undefined), the IC50 is reported as 27.6 µM. In the case of `CC(=O)O[C@@H](C/C=C(\C)C(=O)O)[C@@H](C)[C@H]1C[C@H](OC(C)=O)[C@@]2(C)C3=CC[C@H]4C(C)(C)[C@H](O)CC[C@]4(C)C3=CC[C@]12C`, the IC50 is reported as 18 µM. With `CCOc1ccccc1NC(=O)Cn1c(=O)n(CCC(=O)NCCc2ccc(OC)c(OC)c2)c(=O)c2ccccc21` the IC50 was > 40 µM (inactive). For `Cc1ccc(-c2nn(C(C)(C)C)c3ncnc(NS(=O)(=O)c4ccc(Cl)cc4)c23)cc1`, the IC50 was > 40 µM (inactive). In the case of `Fc1cccc(Nc2nc(-c3ccccn3)nc3ccccc23)c1`, the IC50 is reported as > 40 µM (inactive). Work on `Cc1ccc2[nH]c(=O)c(-c3nc4ccc(C)cn4c3NCc3ccc(F)cc3)cc2c1` yielded an IC50 of 20.3 µM. With `O=C1c2c(O)c(Cl)cc3c2[C@@]2(Oc4ccc(O)c5c4[C@]3(O2)[C@@H]2O[C@@H]2C5=O)[C@@H]2O[C@H]12` the IC50 was 1.31 µM. For `Cc1cc(C)c(NC(=O)CSc2nc3nccnc3c(=O)n2Cc2ccccc2Cl)c(C)c1`, the IC50 was > 40 µM (inactive). With `Cc1nc(-c2ccccc2)sc1-c1nc(-c2ccccc2)ncc1S(=O)(=O)c1ccccc1` the IC50 was > 40 µM (inactive). In the case of `CCN(Cc1ccccc1)C(=O)Cn1ccc2ccn(C)c2c1=O`, the IC50 is reported as > 40 µM (inactive). `CCc1ccc(-n2cc(OC(C)=O)c3c2nc(C)n2c4ccccc4nc32)cc1` was tested, and the IC50 was > 40 µM (inactive). For `CCOc1ccc(CCNC(=O)Cn2c(-c3ccc(F)cc3)cc(C(C)=O)c2C)cc1OCC`, the IC50 was > 40 µM (inactive). With `Cc1cc(NC(=O)Cn2c(=O)n(CCCCC(=O)NCc3ccco3)c(=O)c3ccccc32)ccc1Br` the IC50 was 14.6 µM. `N#C/C(=C\c1ccccc1F)c1nnc(N)s1` was tested, and the IC50 was > 40 µM (inactive). `CCN(c1ccc(NC(=O)COC(=O)c2cccnc2Nc2cccc(C(F)(F)F)c2)cc1)C(C)C` was tested, and the IC50 was > 40 µM (inactive). For `Cc1cc(Nc2ccc(C(=O)NCc3ccco3)cc2)n2nc(-c3cccnc3)nc2n1`, the IC50 was > 40 µM (inactive). For `Cc1cccc(Cl)c1NC(=O)Nc1ccc(NC(=O)c2ccccc2O)cc1`, the IC50 was 13.2 µM. `COc1ccc(-c2nc(SCC(=O)Oc3c(C)cccc3C)n3[nH]c(=O)cc3n2)cc1` showed an IC50 of 9.85 µM. `Cc1cccc(NC(=O)c2noc3c2CCc2sccc2-3)n1` was tested, and the IC50 was > 40 µM (inactive). Compound `COc1cccc(NC(=O)C(Sc2cccc(NC(=O)c3ccccc3F)c2)c2ccccc2)c1` (centres undefined) has an IC50 of 33.6 µM. `Cc1ccc(-n2nc(C(=O)Nc3ccc(C)cn3)c3ncn(C)c(=O)c32)cc1` was tested, and the IC50 was > 40 µM (inactive). `CC(C)=CCc1c(O)cc2c(c1C)OC(=O)c1c(C)c(Cl)c(O)c(CO)c1O2` was tested, and the IC50 was 15.9 µM. `CC(NC(=O)c1ccccc1)c1nc2ccccc2n1CC(=O)Nc1ccc(OC(F)(F)F)cc1` (centres undefined) gave an IC50 of 37.9 µM. In the case of `O=c1[nH]cccc1NS(=O)(=O)c1ccc(F)cc1`, the IC50 is reported as > 40 µM (inactive). With `Cc1ccc(NC(=O)c2cc(-c3cccnc3)n[nH]2)cc1F` the IC50 was > 40 µM (inactive). For `O=C(/C=C/c1ccco1)N1CCC(Cn2cccn2)CC1`, the IC50 was > 40 µM (inactive). `COCCCNC(=O)c1ccc(Cn2c(=O)c3ccccc3n(CC(=O)Nc3ccc4c(c3)OCCO4)c2=O)cc1` was tested, and the IC50 was > 40 µM (inactive). `N#Cc1ccccc1NC(=O)c1cc2c(s1)-c1ccccc1S(=O)(=O)C2` showed an IC50 of 34.6 µM. With `CCn1cc2c(n1)c(=O)n(Cc1ccc(C)cc1)c(=O)n2CC(=O)Nc1ccc(F)cc1` the IC50 was > 40 µM (inactive). For `COc1ccc(NC(=O)Cn2cc(C(=O)c3ccc(F)cc3)c(=O)c3cc(C)ccc32)cc1OC`, the IC50 was > 40 µM (inactive). Compound `CC(NC(=O)c1ccccc1)c1nc2ccccc2n1CC(=O)Nc1ccc2c(c1)OCO2` (centres undefined) has an IC50 of 11.5 µM. `CCOc1ccc2c(c1)c(=O)c(C(=O)c1ccccc1)cn2CC(=O)Nc1ccc2c(c1)OCCO2` was tested, and the IC50 was 22.5 µM. For `CC(C)CC1NC(=O)C2CCCN2C1=O` (centres undefined), the IC50 was > 40 µM (inactive). Compound `CC(C)=CCOC(C)(C)[C@H]1OC2CC[C@@]3(C)C(CCC4Cc5c([nH]c6ccccc56)[C@@]43C)C23OC3[C@@H]1O` (some centres undefined) has an IC50 of 10.6 µM. `C[C@H](NC(=O)Cc1ccccc1F)c1nc2cc(-c3ccccc3F)ncn2n1` was tested, and the IC50 was 36.4 µM. In the case of `O=C(CCCc1nnc2c(=O)n(-c3cccc(F)c3)ccn12)Nc1ccccc1`, the IC50 is reported as > 40 µM (inactive). For `CC(C)(C)C(=O)C1C2C(=O)N(c3ccc4c(c3)OCO4)C(=O)C2C2c3ccccc3C=CN12` (centres undefined), the IC50 was > 40 µM (inactive). With `Cc1ccc(C(=O)NCc2ccc(C(=O)Nc3ccc(Cl)cc3)o2)cc1` the IC50 was > 40 µM (inactive). `CCn1cc2c(n1)c(=O)n(Cc1ccccc1)c(=O)n2CC(=O)Nc1ccc(C)cc1C` gave an IC50 of 12.1 µM. `CCCCC/C=C/C=C/C(=O)OC1C(O)CC(c2ccc3c(c2O)C(=O)c2c(O)cc4cc(C)cc(O)c4c2C3=O)OC1C` (centres undefined) was tested, and the IC50 was > 40 µM (inactive). `COc1ccc(N/C=C/c2onc(C)c2[N+](=O)[O-])c(OC)c1` was tested, and the IC50 was > 40 µM (inactive). In the case of `COCCCn1c(C(=O)NCc2ccccc2)cc2c(=O)n3ccccc3nc21`, the IC50 is reported as > 40 µM (inactive). Work on `Cc1nc(-c2ccc(Cl)cc2)oc1C(=O)Nc1ccc(Cl)cc1` yielded an IC50 of 38.1 µM. With `Cc1cc(N2CCOCC2)nc(N2CCN(C(=O)C(C)Oc3ccccc3)CC2)n1` (centres undefined) the IC50 was > 40 µM (inactive). With `COc1ccccc1N1CCN(C(=O)c2ccc3c(=O)n(CCc4ccccc4)c(=O)[nH]c3c2)CC1` the IC50 was > 40 µM (inactive). In the case of `Cc1cccn2c(=O)c3cc(C#N)c(=O)n(-c4cccc(C(F)(F)F)c4)c3nc12`, the IC50 is reported as > 40 µM (inactive). `Cc1c(-c2nsc(NC(=O)c3ccc(Cl)cc3)n2)nnn1-c1ccccc1F` showed an IC50 of 15.7 µM. With `Cc1ccc(C2c3[nH]c4ccccc4c3C[C@H]3C(=O)N(c4ccc(C(=O)NCCc5ccccc5)cc4)C(=O)N23)cc1` (some centres undefined) the IC50 was > 40 µM (inactive). `COCCCN1CCS(=O)(=O)c2c(Cl)c(F)nc(Oc3ccc(C#N)cc3)c21` was tested, and the IC50 was > 40 µM (inactive). Compound `O=C(Cn1c(=O)c2ccccc2n(CC(=O)Nc2cccc(F)c2)c1=O)NCCc1ccccc1` has an IC50 of 27.4 µM. In the case of `Cc1sc2ccn(C)c(=O)c2c1C(=O)NC1CCCC1`, the IC50 is reported as 27.5 µM. In the case of `COc1ccccc1-c1nc(-c2cn(-c3ccc(F)cc3)nn2)no1`, the IC50 is reported as 15.6 µM.
